Assay results taken from article PMC6222509, “Dibasic Derivatives of Phenylcarbamic Acid against Mycobacterial Strains: Old Drugs and New Tricks?” (Molecules : A Journal of Synthetic Chemistry and Natural …, 2018).
≈ marks a conversion by molar mass, not a printed value. Where two headings read alike, the source gives them in different places.

What was measured:
[1] = system: M. smegmatis ATCC 700084 (MS); assay: in vitro antimycobacterial MIC, broth dilution micromethod in Middlebrook 7H9; type: cell-based, Mycobacterium smegmatis; details: Mycolicibacterium smegmatis, ATCC700084, 72 h
[2] = lipophilicity by isocratic RP-HPLC (log k, k, log kw, S); type: physicochemical; details: for log kw: extrapolated to 100% water from log k versus ϕM; for S (slope): slope of log k versus ϕM regression
From the text: Octadecyl-functionalized silica gel was currently used as a stationary phase (SPh) and a […] of two solvents at different volume ratios modified retention properties of the SPh. Liquid binary mixtures of methanol (MeOH) with water were employed as mobile phases (MPhs) in the isocratic RP-HPLC. The MeOH modifier was preferred because of similarity of both observed and extrapolated lipophilicity parameters with the ones determined in the octan-1-ol/water partition system, considering also sensitivity to H-bond donor properties of investigated compounds [41].
The modifier was applied in different volume concentrations, which varied from […] (v/v) with 5% increments. This interval was chosen due to very high lipophilicity of investigated salts. Practically, lower volume concentration of MeOH, i.e., less than 85% (v/v) in used MPhs, caused uncertainty of retention times (tr) due to notable peaks broadening, especially within subsets 1i–l and 1m–p. […] The highest tr parameters were found for the molecules 1k (tr = 47.108 min) and 1l (tr = 70.012 min) in the MPh containing 85% proportion (v/v) of MeOH (Table 2).
According to the authors’ opinions based on systematic scientific literature survey, a current research paper was the first, which aimed the log kw parameters of 2-/3-alkoxyphenylcarbamic acid derivatives containing two centers of protonation. The log kw values were extrapolated from intercepts of a relationship between log k and volume fraction of the MPh modifier (ϕM) using the Snyder–Soczewiński linear solvent strength model. The relationship was justified by R > 0.9900, Adj. R^2 > 0.9750 as well as F > 180.00 for calculation of particular log kw parameters (Table 3).
The HPLC separation module Waters e2695 equipped with a Waters 2996 PDA Detector (Waters Corp., Milford, MA, USA) and chromatographic column Symmetry C18 × 5 μm, 4.6 × 250 mm, Part No. W21751W016 (Waters Corp.) were used for estimation of lipophilic properties of the compounds 1a–p at 21 °C.
Isocratic elution was carried out using mobile phases consisting of methanol p.a. (MeOH; Honeywell, Paris, France) and purified water in various volume ratios (80:20, 85:15, 90:10, 95:5 (v/v) and pure MeOH, respectively). Distilled water (CentralChem, Bratislava, Slovak Republic) was purified by the Aquinity2 P10 ultra-pure water system for production of ultra-pure water with an integrated 10 L permeate tank (membraPure, Hennigsdorf, Germany).
Total flow of the column was 1.0 mL/min, injection volume was 4 μL and column temperature was set to 40 °C. The detection wavelengths varying from 236 nm to 238 nm were chosen for current experimental procedures.
Lipophilicity of the compounds 1a–p was determined by reversed-phase high-performance liquid chromatography (RP-HPLC). Methanol (MeOH)/water mobile phases with varying volume ratio of the organic modifier and water (80:20, 85:15, 90:10, 95:5 (v/v) and pure MeOH, respectively) were chosen.
A methanolic solution of potassium iodine was used for dead time (td) determination. Retention factors (capacity factors; k) were calculated according to Equation (17):k = (tr− td)/td(17) where tr was retention time of a solute (in min), the td parameter denoted dead time of potassium iodine, an unretained analyte (in min).
The observed retention (tr) and dead (td) times were means of three independent determinations. Average td values of potassium iodine in used MPhs were as follows: 2.237 min (MeOH/water ratio (v/v) was 80:20), 2.245 min (85:15), 2.245 min (90:10), 2.228 min (95:5) and 2.210 min (pure MeOH), respectively. […]

[3] = read-out: MIC MS 3-d, 3-day cultivation, 37 °C
[4] = mobile phase MeOH/water 80:20 (v/v)
[5] = mobile phase MeOH/water 85:15 (v/v)
[6] = mobile phase MeOH/water 90:10 (v/v)
[7] = mobile phase MeOH/water 95:5 (v/v)
[8] = 3-day cultivation, 37 °C, read-out: MIC MS 3-d

| SMILES | MIC [1, 3] | log kw [2] | k (retention factor) [2, 4] | log k [2, 4] | k (retention factor) [2, 5] | log k [2, 5] | k (retention factor) [2, 6] | log k [2, 6] | k (retention factor) [2, 7] | log k [2, 7] | k (retention factor) ([2]; mobile phase pure MeOH) | log k ([2]; mobile phase pure MeOH) | S (slope) [2] | MIC [1, 8] |
| --- | --- | --- | --- | --- | --- | --- | --- | --- | --- | --- | --- | --- | --- | --- |
| CCCCCCCOc1cccc(NC(=O)OC(CN(CCC)CCC)CN2CCCC2)c1.Cl.Cl (stereo not drawn) [1h, 1-[2-[({[3-(heptyloxy)phenyl]amino}carbonyl)oxy]-3-(dipropylammonio)propyl]pyrrolidinium dichloride] | 15 µM | 5.5384 | 8.9557 | 0.9521 | 5.1988 | 0.7159 | 2.8609 | 0.4565 | 1.6188 | 0.2092 | 0.6091 | −0.2153 | 5.6830 | – |
| CCCCOc1ccccc1NC(=O)OC(CN(CCC)CCC)CN1CCCCCC1 (stereo not drawn) [1i] | 203 µM (≈ 90.9 µg/mL) | 4.4679 | 9.7297 | 0.9881 | 6.5358 | 0.8153 | 4.2073 | 0.6240 | 2.4854 | 0.3954 | 1.3198 | 0.1205 | 4.3102 | – |
| CCCCCOc1ccccc1NC(=O)OC(CN(CCC)CCC)CN1CCCCCC1.O=C(O)C(=O)O (stereo not drawn) [1j, 1-[2-[({[2-(Pentyloxy)phenyl]amino}carbonyl)oxy]-3-(dipropylammonio)propyl]-azepanium oxalate] | 6.2 µM | 4.8466 | 12.1983 | 1.0863 | 7.9086 | 0.8981 | 4.8173 | 0.6828 | 2.8242 | 0.4509 | 1.3960 | 0.1449 | 4.6600 | – |
| CCCCCCOc1ccccc1NC(=O)OC(CN(CCC)CCC)CN1CCCCCC1 (stereo not drawn) [1k] | – | 5.2359 | 20.0586 | 1.3023 | 11.0255 | 1.0424 | 6.3650 | 0.8038 | 3.3274 | 0.5221 | 2.1394 | 0.3303 | 4.9286 | 390 µM (≈ 186 µg/mL) |
| CCCCCCCOc1cccc(NC(=O)OC(CN(CCC)CCC)CN2CCCCCC2)c1.O=C(O)C(=O)O (stereo not drawn) [1l, 1-[2-[({[3-(hept-yloxy)phenyl]amino}carbonyl)oxy]-3-(dipropylammonio)propyl]azepanium oxalate] | – | 5.8966 | 30.4159 | 1.4831 | 16.4135 | 1.2152 | 9.1601 | 0.9619 | 4.2374 | 0.6271 | 2.5096 | 0.3996 | 5.5102 | 382 µM |
| CCCCOc1cccc(NC(=O)OC(CN(CCC)CCC)CN2CCCCCC2)c1 (stereo not drawn) [1m] | – | 4.7099 | 6.0325 | 0.7805 | 3.1060 | 0.4922 | 1.8599 | 0.2695 | 1.1026 | 0.0424 | 0.5922 | −0.2275 | 4.9316 | 30.7 µM (≈ 13.7 µg/mL) |
| CCCCCOc1cccc(NC(=O)OC(CN(CCC)CCC)CN2CCCCCC2)c1.Cl.Cl (stereo not drawn) [1n, 1-[2-[({[3-(pentyloxy)phenyl]amino}carbonyl)oxy]-3-(di-propylammonio)propyl]azepanium dichloride] | 15 µM | 5.2087 | 8.9166 | 0.9502 | 4.5102 | 0.6542 | 2.6333 | 0.4205 | 1.2419 | 0.0941 | 0.7858 | −0.1047 | 5.3398 | – |
| CCCCCCOc1cccc(NC(=O)OC(CN(CCC)CCC)CN2CCCCCC2)c1.Cl.Cl (stereo not drawn) [1o, 1-[2-[({[3-(hexyloxy)phenyl]amino}-carbonyl)oxy]-3-(dipropylammonio)propyl]azepanium dichloride] | 7.3 µM | 5.6569 | 12.0420 | 1.0807 | 5.0804 | 0.7059 | 3.2915 | 0.5174 | 1.2868 | 0.1095 | 0.8674 | −0.0618 | 5.7628 | – |
| CCCCCCCOc1cccc(NC(=O)OC(CN(CCC)CCC)CN2CCCCCC2)c1.Cl.Cl (stereo not drawn) [1p, 1-[2-[({[3-(heptyloxy)phenyl]amino}carbonyl)-oxy]-3-(dipropylammonio)propyl]azepanium dichloride] | 7.1 µM | 6.1749 | 14.0734 | 1.1484 | 6.6298 | 0.8215 | 4.0476 | 0.6072 | 1.6036 | 0.2051 | 0.7759 | −0.1102 | 6.2672 | – |
